This note sets out measurements from the supplement of paper PMC10307832.

Holding throughout (test): relative viability (nuclei count vs DMSO), 5 days (fraction); higher = more cells survive
Compound in assay [1]: CC1=CC=C(C=C1)C(=O)CN2C3=C(CCCC3)SC2=N [Pifithrin_alpha] + CC(=O)Nc1cccc(-n2c(=O)n(C3CC3)c(=O)c3c(Nc4ccc(I)cc4F)n(C)c(=O)c(C)c32)c1 [Trametinib] (partner 0.02 µM)
An outline of the steps:
(§1)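 A single step with final 0.05% Triton X-100, 1% formaldehyde and 1 ug/ml Hoechst fixed the cells and stained nuclei 5 days after treatment. Lung cancer cell lines in 1536-well plates had been treated by pin tool the day after seeding with one drug alone or a fixed anchor-drug dose plus five library-drug doses (not always all listed) in √10 steps, and nuclei were counted on 4× images. Relative viability is the ratio of nuclei in treated wells to nuclei in vehicle wells, taken as the median of duplicate plates.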

Compound in assay [2]: Nc1nc(Nc2ccc3c(c2)CC[C@@H](N2CCCC2)CC3)nn1-c1cc2c(nn1)-c1ccccc1CCC2 [Bemcentinib] + O=C(c1cc(Cc2n[nH]c(=O)c3ccccc23)ccc1F)N1CCN(C(=O)C2CC2)CC1 [Olaparib] (partner 8 µM)
An outline of the steps:
as §1

Compound in assay [3]: Nc1nc(Nc2ccc3c(c2)CC[C@@H](N2CCCC2)CC3)nn1-c1cc2c(nn1)-c1ccccc1CCC2 [Bemcentinib] + CC1(C)CCC(c2ccc(Cl)cc2)=C(CN2CCN(c3ccc(C(=O)NS(=O)(=O)c4ccc(N[C@H](CCN5CCOCC5)CSc5ccccc5)c(S(=O)(=O)C(F)(F)F)c4)cc3)CC2)C1 [Navitoclax] (partner 0.5 µM)
An outline of the steps:
as §1

Compound in assay [4]: Nc1nc(Nc2ccc3c(c2)CC[C@@H](N2CCCC2)CC3)nn1-c1cc2c(nn1)-c1ccccc1CCC2 [Bemcentinib] + N=C(N)NC(=N)NCCc1ccccc1 [Phenformin] (partner 250 µM)
An outline of the steps: as §1

Take RERF-LC-KJ: the relative viability is 0.861 in assay [1] (first compound 1 µM); 0.774 in assay [1] (first compound 3.162 µM); 0.693 in assay [1] (first compound 10 µM); 0.747 in assay [1] (first compound 31.62 µM); 0.586 in assay [1] (first compound 100 µM); 0.873 in assay [2] (first compound 0.04 µM). The relative viability in assay [2] (first compound 0.1265 µM) turned out to be 0.928; in assay [2] (first compound 0.4 µM), 0.896; in assay [2] (first compound 1.265 µM), 0.976; in assay [2] (first compound 4 µM), 0.782; in assay [3] (first compound 0.04 µM), 0.815; in assay [3] (first compound 0.1265 µM), 0.805. The relative viability in assay [3] (first compound 0.4 µM) worked out at 0.983; in assay [3] (first compound 1.265 µM) it was 1.01; in assay [3] (first compound 4 µM), 0.947; in assay [4] (first compound 0.04 µM) it was 0.42; in assay [4] (first compound 0.1265 µM), 0.424; in assay [4] (first compound 0.4 µM), 0.412. The values for the relative viability in assay [4] (first compound 1.265 µM) and in assay [4] (first compound 4 µM) were 0.391 and 0.334, respectively.
As to SK-LU-1, the relative viability in assay [1] (first compound 1 µM) worked out at 0.561; in assay [1] (first compound 3.162 µM), 0.494; in assay [1] (first compound 10 µM) it was 0.43; in assay [1] (first compound 31.62 µM), 0.42; in assay [1] (first compound 100 µM) it was 0.48; in assay [2] (first compound 0.04 µM), 0.456. The relative viability was determined as 0.569 in assay [2] (first compound 0.1265 µM); 0.452 in assay [2] (first compound 0.4 µM); 0.47 in assay [2] (first compound 1.265 µM); 0.488 in assay [2] (first compound 4 µM); 0.867 in assay [3] (first compound 0.04 µM); 0.986 in assay [3] (first compound 0.1265 µM). Also, the relative viability in assay [3] (first compound 0.4 µM) was 0.894; in assay [3] (first compound 1.265 µM), 0.807; in assay [3] (first compound 4 µM) it was 0.615; in assay [4] (first compound 0.04 µM), 0.521; in assay [4] (first compound 0.1265 µM) it was 0.633; in assay [4] (first compound 0.4 µM), 0.485. The relative viability in assay [4] (first compound 1.265 µM) is 0.548; in assay [4] (first compound 4 µM), 0.6.
Regarding SK-MES-1, the relative viability in assay [1] (first compound 1 µM) was 0.593; in assay [1] (first compound 3.162 µM) it was 0.518; in assay [1] (first compound 10 µM) it was 0.462; in assay [1] (first compound 31.62 µM) it was 0.36; in assay [1] (first compound 100 µM), 0.403; in assay [2] (first compound 0.04 µM) it was 0.833. The relative viability in assay [2] (first compound 0.1265 µM) was 0.771; in assay [2] (first compound 0.4 µM), 0.734; in assay [2] (first compound 1.265 µM) it was 0.823; in assay [2] (first compound 4 µM), 0.682; in assay [3] (first compound 0.04 µM) it was 1.25; in assay [3] (first compound 0.1265 µM) it was 1.22. For the same cell line, the relative viability is 1.36 in assay [3] (first compound 0.4 µM); 1.49 in assay [3] (first compound 1.265 µM); 1.47 in assay [3] (first compound 4 µM); 0.687 in assay [4] (first compound 0.04 µM); 0.691 in assay [4] (first compound 0.1265 µM); 0.652 in assay [4] (first compound 0.4 µM). Besides, the relative viability in assay [4] (first compound 1.265 µM) turned out to be 0.758; in assay [4] (first compound 4 µM), 0.667.
Turning to SW 1573, the relative viability in assay [1] (first compound 3.162 µM) turned out to be 0.619; in assay [1] (first compound 10 µM) it was 0.567; in assay [1] (first compound 31.62 µM), 0.341; in assay [1] (first compound 100 µM), 0.31; in assay [2] (first compound 0.04 µM) it was 0.504; in assay [2] (first compound 0.1265 µM) it was 0.437. For the same cell line, the relative viability in assay [2] (first compound 0.4 µM) is 0.558; in assay [2] (first compound 1.265 µM), 0.465; in assay [2] (first compound 4 µM), 0.438; in assay [3] (first compound 0.04 µM) it was 0.868; in assay [3] (first compound 0.1265 µM) it was 0.979; in assay [3] (first compound 0.4 µM), 1.09. Besides, the relative viability worked out at 1.18 in assay [3] (first compound 1.265 µM); 0.97 in assay [3] (first compound 4 µM); 0.415 in assay [4] (first compound 0.04 µM); 0.373 in assay [4] (first compound 0.1265 µM); 0.363 in assay [4] (first compound 0.4 µM); 0.368 in assay [4] (first compound 1.265 µM). In assay [4] (first compound 4 µM), the relative viability was determined as 0.365.
Regarding UMC-11, the relative viability in assay [1] (first compound 1 µM) amounted to 0.73; in assay [1] (first compound 3.162 µM), 0.715; in assay [1] (first compound 10 µM) it was 0.719; in assay [1] (first compound 31.62 µM), 0.657; in assay [1] (first compound 100 µM), 0.87; in assay [2] (first compound 0.04 µM), 0.366. Moreover, the relative viability came to 0.678 in assay [2] (first compound 0.1265 µM); 0.322 in assay [2] (first compound 0.4 µM); 0.352 in assay [2] (first compound 1.265 µM); 0.384 in assay [2] (first compound 4 µM); 0.274 in assay [3] (first compound 0.04 µM); 0.327 in assay [3] (first compound 0.1265 µM). Moreover, the relative viability is 0.34 in assay [3] (first compound 0.4 µM); 0.317 in assay [3] (first compound 1.265 µM); 0.307 in assay [3] (first compound 4 µM); 0.324 in assay [4] (first compound 0.04 µM); 0.355 in assay [4] (first compound 0.1265 µM); 0.365 in assay [4] (first compound 0.4 µM). Also, the values for the relative viability in assay [4] (first compound 1.265 µM) and in assay [4] (first compound 4 µM) were 0.314 and 0.312, respectively.
